From PubChem BioAssay AID602338 (NMMLSC, 2012)
The source made the active and inactive calls. How the calls were made is not given here.

Target: Botulinum neurotoxin type F (Clostridium botulinum) (UniProt P30996)
Assay: Botulinum neurotoxin type F light chain protease inhibitors, multiplex microsphere dose response (AID 602338)
Settings: multiplex microsphere protease cleavage assay, flow cytometry

| SMILES | EC50 |
| --- | --- |
| CCS(=O)(=O)N1N=C(c2cccc(NS(C)(=O)=O)c2)CC1c1ccccc1 (centres undefined) | > 20 µM (inactive) |
| O=c1c(/C=C(\O)c2ccccc2)nc2ccccc2n1-c1ccccc1 | > 20 µM (inactive) |
| COc1ccc(OC)c(-c2nc3cc4ccccc4cc3nc2-c2ccccc2)c1 | > 20 µM (inactive) |
| CS(=O)(=O)N1N=C(c2ccccc2)CC1c1ccc2c(c1)OCO2 (centres undefined) | > 20 µM (inactive) |
| Oc1[nH]c(N=C2N=c3ccccc3=N2)c2ccccc12 | > 20 µM (inactive) |
| CCOc1ccc2nc3cc(NCc4ccc(OC)cc4)ccc3c(N)c2c1 | > 20 µM (inactive) |
| COc1ccc(C2CC(c3cccs3)=NN2c2nc(C)c(C(C)=O)s2)cc1OC (centres undefined) | > 20 µM (inactive) |
| O=[N+]([O-])c1cccc(-c2cn3nc(-c4ccccc4)c(-c4ccccc4)nc3n2)c1 | > 20 µM (inactive) |
| CSc1nnc2c(n1)c(C)nn2-c1cccc(C)c1 | > 20 µM (inactive) |
| O=C(Nc1ccc2nc(-c3cccs3)c(-c3cccs3)nc2c1)NC1CC1 | > 20 µM (inactive) |
| Cn1c(=O)c(/C=C/c2ccccc2)nc2ccccc21 | > 20 µM (inactive) |
| CCSc1nnc(-c2sc3nnc(-c4ccccc4)c(-c4ccccc4)c3c2N)o1 | > 20 µM (inactive) |
| c1ccc(-c2cn3nc(-c4ccccc4)c(-c4ccccc4)nc3n2)cc1 | > 20 µM (inactive) |
| O=C(Nc1ccc2nc(-c3cccs3)c(-c3cccs3)nc2c1)N1CCOCC1 | > 20 µM (inactive) |
